Key:
KRas^G12C = target: T1, KRas^G12C (Homo sapiens, UniProt P01116, G12C); assay: KRas binding assay (TR-FRET tracer displacement), KRas G12C; settings: TR-FRET tracer displacement, KRas G12C
T1 construct: Biotinylated KRas (corresponding to amino acids 1-169, produced at Accelegan Inc.); biotin (biotinylated); purchased Accelegan Inc

[1] = tested on: KRas-mediated phosphorylation of ERK in MKN1 cells; assay: Inhibition of KRas-mediated phosphorylation of ERK (Cisbio HTRF pERK), MKN1 cells; format: cell-based; settings: Homo sapiens, MKN-1
Method in brief: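 Overnight culture at 37° C./5% CO2 in RPMI containing 10% FBS, seeded 6,000 cells per well, preceded the assay. A covered 4-hour incubation at room temperature followed, then HTRF signal for phosphorylated ERK was measured.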

KRas^G12V = target: T2, KRas^G12V (Homo sapiens, UniProt P01116, G12V); assay: KRas binding assay (TR-FRET tracer displacement), KRas G12V
T2 construct: Biotinylated KRas (corresponding to amino acids 1-169, produced at Accelegan Inc.); biotin (biotinylated); purchased Accelegan Inc

[2] = tested on: KRas-mediated phosphorylation of ERK in HCT116 cells; assay: Inhibition of KRas-mediated phosphorylation of ERK (Cisbio HTRF pERK), HCT116 cells; format: cell-based; settings: Homo sapiens, HCT-116, HTRF pERK
Method in brief: (§1)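 Each compound was tested at 10 concentrations, threefold apart with 10 uM the highest, for 3 hrs on 6,000 seeded cells; final DMSO was 0.8% and Trametinib (0.2 uM) served as Min control. Lysed cells were analysed for pERK by HTRF.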

KRas^G12D = target: T3, KRas^G12D (Homo sapiens, UniProt P01116, G12D); assay: KRas binding assay (TR-FRET tracer displacement), KRas G12D
T3 construct: Biotinylated KRas (corresponding to amino acids 1-169, produced at Accelegan Inc.); biotin (biotinylated); purchased Accelegan Inc

[3] = tested on: KRas-mediated phosphorylation of ERK in H460 cells; assay: Inhibition of KRas-mediated phosphorylation of ERK (Cisbio HTRF pERK), H460 cells; format: cell-based; settings: Homo sapiens, NCI-H460, HTRF pERK
Method in brief: (§2)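 Following a 3-hr exposure of cells to serially diluted compound (from 10 uM, 3-fold, 10 doses), cold lysis for 40 mins preceded a 2-hr room-temperature HTRF immunoassay for phosphorylated ERK.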

[4] = tested on: KRas-mediated phosphorylation of ERK in H358 cells; assay: Inhibition of KRas-mediated phosphorylation of ERK (Cisbio HTRF pERK), H358 cells; format: cell-based; settings: Homo sapiens, NCI-H358, HTRF pERK
Method in brief: as §2

KRas^WT = target: T4, KRas^WT (Homo sapiens, UniProt P01116); assay: KRas binding assay (TR-FRET tracer displacement), KRas WT; settings: TR-FRET tracer displacement, KRas WT
T4 construct: Biotinylated KRas (corresponding to amino acids 1-169, produced at Accelegan Inc.); biotin (biotinylated); purchased Accelegan Inc

[5] = tested on: KRas-mediated phosphorylation of ERK in A549 cells; assay: Inhibition of KRas-mediated phosphorylation of ERK (Cisbio HTRF pERK), A549 cells; format: cell-based; settings: Homo sapiens, HTRF pERK
Method in brief: as §1

KRas^G12S = target: T5, KRas^G12S (Homo sapiens, UniProt P01116, G12S); assay: KRas binding assay (TR-FRET tracer displacement), KRas G12S; settings: TR-FRET tracer displacement, KRas G12S
T5 construct: Biotinylated KRas (corresponding to amino acids 1-169, produced at Accelegan Inc.); biotin (biotinylated); purchased Accelegan Inc

[6] = tested on: KRas-mediated phosphorylation of ERK in H727 cells; assay: Inhibition of KRas-mediated phosphorylation of ERK (Cisbio HTRF pERK), H727 cells; format: cell-based; settings: Homo sapiens, NCI-H727, H727 cells; HTRF pERK
Method in brief: as §2

[7] = tested on: KRas-mediated phosphorylation of ERK in AsPC-1 cells; assay: Inhibition of KRas-mediated phosphorylation of ERK (Cisbio HTRF pERK), AsPC-1 cells; format: cell-based; settings: Homo sapiens, ASPC1, AsPC-1 cells; HTRF pERK
Method in brief: as §2

T3 sequence (P01116 1-169 isoform P01116-2 G12D): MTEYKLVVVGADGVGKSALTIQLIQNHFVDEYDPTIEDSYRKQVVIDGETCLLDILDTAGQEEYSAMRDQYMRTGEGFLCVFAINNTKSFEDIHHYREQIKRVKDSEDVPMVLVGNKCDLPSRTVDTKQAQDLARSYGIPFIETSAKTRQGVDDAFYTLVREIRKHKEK
T5 sequence (P01116 1-169 isoform P01116-2 G12S): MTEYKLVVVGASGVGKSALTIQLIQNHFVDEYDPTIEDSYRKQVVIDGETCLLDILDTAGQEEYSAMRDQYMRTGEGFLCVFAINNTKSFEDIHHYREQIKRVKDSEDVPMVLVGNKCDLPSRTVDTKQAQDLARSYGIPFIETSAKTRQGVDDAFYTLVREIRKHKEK
T1 sequence (P01116 1-169 isoform P01116-2 G12C): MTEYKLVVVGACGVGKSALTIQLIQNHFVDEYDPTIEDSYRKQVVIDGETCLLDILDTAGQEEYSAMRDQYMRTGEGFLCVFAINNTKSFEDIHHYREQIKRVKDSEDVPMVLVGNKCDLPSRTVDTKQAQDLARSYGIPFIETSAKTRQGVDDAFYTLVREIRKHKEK
T2 sequence (P01116 1-169 isoform P01116-2 G12V): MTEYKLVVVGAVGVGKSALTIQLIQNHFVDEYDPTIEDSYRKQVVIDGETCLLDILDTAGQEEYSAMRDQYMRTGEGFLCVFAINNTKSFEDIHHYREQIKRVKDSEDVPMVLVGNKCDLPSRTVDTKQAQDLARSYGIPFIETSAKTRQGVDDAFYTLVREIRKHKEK
T4 sequence (P01116 1-169 isoform P01116-2): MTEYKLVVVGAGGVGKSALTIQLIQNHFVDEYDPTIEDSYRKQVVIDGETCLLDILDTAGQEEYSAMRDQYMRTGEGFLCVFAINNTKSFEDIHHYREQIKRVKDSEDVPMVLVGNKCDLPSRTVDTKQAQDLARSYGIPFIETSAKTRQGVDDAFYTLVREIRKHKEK

IC50 (KRas^G12C) [nM]	IC50 [1] [nM]	IC50 (KRas^G12V) [nM]	IC50 [2] [nM]	IC50 (KRas^G12D) [nM]	IC50 [3] [nM]	IC50 [4] [nM]	IC50 (KRas^WT) [nM]	IC50 [5] [nM]	IC50 (KRas^G12S) [nM]	IC50 [6] [nM]	IC50 [7] [nM]	SMILES
< 2	11	< 2	526	< 2	287	18	4	202	< 2	70	29	C[C@@H]1C[C@@H]1c1c(Cl)cc(O)cc1-c1ncc2c(N3CCCn4nc(C(=O)N(C)C)cc4C3)nc(OC[C@@]34CCCN3C[C@H](F)C4)nc2c1F [Example 933, 5-(7-(3-chloro-5-hydroxy-2-((1S,2R)-2-methylcyclopropyl)phenyl)-8-fluoro-2-(((2R,7aS)-2-fluorotetrahydro-1H-pyrrolizin-7a(5H)-yl)methoxy)pyrido[4,3-d]pyrimidin-4-yl)-N,N-dimethyl-5,6,7,8-tetrahydro-4H-pyrazolo[1,5-a][1,4]diazepine-2-carboxamide]
2	2	< 2	262	< 2	104	11	3	71	< 2	25	17	C[C@@H]1C[C@@H]1c1c(Cl)cc(O)cc1-c1ncc2c(N3CCCn4nc(C(=O)N(C)C)cc4C3)nc(OCC34CCCN3C/C(=C\F)C4)nc2c1F (stereo partly drawn) [Example 936, 5-(7-(3-chloro-5-hydroxy-2-((1S,2R)-2-methylcyclopropyl)phenyl)-8-fluoro-2-(((Z)-2-(fluoromethylene)tetrahydro-1H-pyrrolizin-7a(5H)-yl)methoxy)pyrido[4,3-d]pyrimidin-4-yl)-N,N-dimethyl-5,6,7,8-tetrahydro-4H-pyrazolo[1,5-a][1,4]diazepine-2-carboxamide]
< 2	0.1	< 2	27	< 2	18	5	< 2	11	< 2	28	32	C/C=C1/CN2CCCC2(COc2nc(N3C[C@@H]4C[C@H](C3)[C@H](O)C4)c3cnc(-c4cc(O)cc5ccc(F)c(CC)c45)c(F)c3n2)C1 (stereo partly drawn) [Example 939, (1R,5R,6R)-3-(7-(8-ethyl-7-fluoro-3-hydroxynaphthalen-1-yl)-2-(((E)-2-ethylidenetetrahydro-1H-pyrrolizin-7a(5H)-yl)methoxy)-8-fluoropyrido[4,3-d]pyrimidin-4-yl)-3-azabicyclo[3.2.1]octan-6-ol]
< 2	2	< 2	43	< 2	17	10	< 2	33	< 2	72	42	C=C1CN2CCCC2(COc2nc(N3CCCC4(CNS(=O)(=O)N4)C3)c3cnc(-c4cc(O)cc5ccc(F)c(CC)c45)c(F)c3n2)C1 (stereo not shown) [Example 940, 7-(7-(8-ethyl-7-fluoro-3-hydroxynaphthalen-1-yl)-8-fluoro-2-((2-methylenetetrahydro-1H-pyrrolizin-7a(5H)-yl)methoxy)pyrido[4,3-d]pyrimidin-4-yl)-2-thia-1,3,7-triazaspiro[4.5]decane 2,2-dioxide]

The next lines start with the compound.

SMILES	IC50 (KRas^G12C) [nM]	IC50 [1] [nM]	IC50 (KRas^G12V) [nM]	IC50 [2] [nM]	IC50 (KRas^G12D) [nM]	IC50 [3] [nM]	IC50 [4] [nM]	IC50 (KRas^WT) [nM]	IC50 [5] [nM]	IC50 (KRas^G12S) [nM]	IC50 [6] [nM]	IC50 [7] [nM]
C=C1CN2CC(=C)CC2(COc2nc(N3C[C@@H]4C[C@H](C3)[C@H](O)C4)c3cnc(-c4cc(O)cc5ccc(F)c(CC)c45)c(F)c3n2)C1 [Example 796, (1R,5R,6R)-3-(2-((2,6-dimethylenetetrahydro-1H-pyrrolizin-7a(5H)-yl)methoxy)-7-(8-ethyl-7-fluoro-3-hydroxynaphthalen-1-yl)-8-fluoropyrido[4,3-d]pyrimidin-4-yl)-3-azabicyclo[3.2.1]octan-6-ol]	< 2	2	< 2	37	< 2	8	5	< 2	7	< 2	12	21
C[C@@H]1C[C@@H]1c1c(Cl)cc(O)cc1-c1ncc2c(N3CCC[C@]4(C3)NC(=O)NC4=O)nc(OC[C@@]34CCCN3C[C@H](F)C4)nc2c1F [Example 932, (R)-7-(7-(3-chloro-5-hydroxy-2-((1S,2R)-2-methylcyclopropyl)phenyl)-8-fluoro-2-(((2R,7aS)-2-fluorotetrahydro-1H-pyrrolizin-7a(5H)-yl)methoxy)pyrido[4,3-d]pyrimidin-4-yl)-1,3,7-triazaspiro[4.5]decane-2,4-dione]	< 2	3	< 2	130	< 2	33	23	< 2	69	< 2	225	139
C[C@@H]1C[C@@H]1c1c(Cl)cc(O)cc1-c1ncc2c(N3CCC[C@]4(C3)NC(=O)NC4=O)nc(OCC34CCCN3C/C(=C\F)C4)nc2c1F (stereo partly drawn) [Example 937, (5R)-7-(7-(3-chloro-5-hydroxy-2-((1S,2R)-2-methylcyclopropyl)phenyl)-8-fluoro-2-(((Z)-2-(fluoromethylene)tetrahydro-1H-pyrrolizin-7a(5H)-yl)methoxy)pyrido[4,3-d]pyrimidin-4-yl)-1,3,7-triazaspiro[4.5]decane-2,4-dione]	< 2	1	< 2	88	< 2	36	12	< 2	55	< 2	116	116
CCc1c(F)ccc2cc(O)cc(-c3ncc4c(N5C[C@@H]6C[C@H](C5)[C@H](O)C6)nc(OC[C@@H]5CC[C@H]6COCCN65)nc4c3F)c12 [Example 945, (1R,5R,6R)-3-(7-(8-ethyl-7-fluoro-3-hydroxynaphthalen-1-yl)-8-fluoro-2-(((6S,8aS)-hexahydro-1H-pyrrolo[2,1-c][1,4]oxazin-6-yl)methoxy)pyrido[4,3-d]pyrimidin-4-yl)-3-azabicyclo[3.2.1]octan-6-ol]	4	0.2	3	40	6	29	12	3	46	< 2	29	79
C=C1CN2CCCC2(COc2nc(N3CC4C(=O)NC(=O)C4C3)c3cnc(-c4cc(O)cc5ccc(F)c(CC)c45)c(F)c3n2)C1 (stereo not shown) [Example 947, 5-(7-(8-ethyl-7-fluoro-3-hydroxynaphthalen-1-yl)-8-fluoro-2-((2-methylenetetrahydro-1H-pyrrolizin-7a(5H)-yl)methoxy)pyrido[4,3-d]pyrimidin-4-yl)tetrahydropyrrolo[3,4-c]pyrrole-1,3(2H,3aH)-dione]	< 2	4	< 2	–	< 2	–	29	< 2	119	< 2	352	157

Reference: patent publication US20260015350A1, “AZAQUINAZOLINE PAN-KRAS INHIBITORS” (Mirati Therapeutics, Inc., priority 2022, published 2026)
